Measurements: patent US9439918B2 (priority 2008, dated 2016)
≈ marks a conversion by molar mass, not a printed value. Where two headings read alike, the source gives them in different places.

How the values were obtained:
[1] = test system: Shigella spp. (40); assay: MIC, CLSI broth microdilution; format: cell-based; conditions: for % by category resistant / % by category susceptible: CLSI 2008 criteria
[2] = test system: intraphagocytic L. pneumophila ATCC 33153; format: cell-based, Legionella pneumophila; conditions: for Emax, Δ log10 CFU at 24 h compared to the post-phagocytosis inoculum: L.p., intracellular; for Emax, CFU decrease from original inoculum: 48 h
[3] = test system: Salmonella spp. (20); assay: MIC, CLSI broth microdilution; format: cell-based; conditions: for MIC50 / MIC90: Salmonella; for % by category resistant / % by category susceptible: CLSI 2008 criteria; for MIC 50% / MIC 90% / MIC Range: Salmonella spp.
[4] = test system: H. pylori (23); assay: MIC, agar dilution / Etest
[5] = test system: C. jejuni (20); assay: MIC, agar dilution / Etest; conditions: for MIC50 / MIC90: Campylobacter jejuni; for MIC50: read-out: MIC 50% (Etest); for MIC90: read-out: MIC 90% (Etest)
[6] = test system: streptococci; assay: MIC50 against Gram-positive cocci; format: cell-based
[7] = test system: intraphagocytic L. monocytogenes EGD; format: cell-based, Listeria monocytogenes; conditions: for Emax, CFU decrease from original inoculum: 24 h
[8] = test system: staphylococci; assay: MIC50 against Gram-positive cocci; format: cell-based
[9] = test system: L. pneumophila ATCC 33153; format: cell-based, Legionella pneumophila
[10] = Helicobacter pylori, read-out: MIC 50% (Etest)
[11] = C. jejuni, 20 strains, agar dilution

CCC[C@@H]1C[C@@H](C(=O)N[C@@H]([C@H]2O[C@H](SC)[C@H](O)[C@@H](O)[C@H]2O)[C@H](C)Cl)N(C)C1 [Clindamycin]
MIC50 ([1]; Shigella spp., 40 strains): > 4 µg/mL
MIC90 ([1]; Shigella spp., 40 strains): > 4 µg/mL

CC[C@H]1OC(=O)[C@H](C)C(=O)[C@H](C)[C@@H](O[C@@H]2O[C@H](C)C[C@H](N(C)C)[C@H]2O)[C@](C)(OC)C[C@@H](C)C(=O)[C@H](C)[C@H]2N(CCCCn3cnc(-c4cccnc4)c3)C(=O)O[C@]12C [TEL, telithromycin]
MIC50 ([1]; Shigella spp., 40 strains): 16 µg/mL (≈ 19.7 µM)
MIC90 ([1]; Shigella spp., 40 strains): 16 µg/mL (≈ 19.7 µM)
Emax, Δ log10 CFU at 24 h compared to the post-phagocytosis inoculum [2]: −0.63 Δ log10 CFU
MIC50 [3]: 8 µg/mL (≈ 9.85 µM)
MIC90 [3]: > 16 µg/mL

C=CC1=C(C(=O)O)N2C(=O)[C@@H](NC(=O)/C(=N\O)c3csc(N)n3)[C@H]2SC1 [Cefdinir]
% by category resistant [1]: 0.0%
% by category susceptible [1]: 100.0%
MIC50 ([1]; Shigella spp., 40 strains): 0.25 µg/mL (≈ 0.632 µM)
MIC90 ([1]; Shigella spp., 40 strains): 0.25 µg/mL (≈ 0.632 µM)
% by category resistant [3]: 0.0%
% by category susceptible [3]: 100.00%
MIC50 [3]: 0.25 µg/mL (≈ 0.632 µM)
MIC90 [3]: 0.5 µg/mL (≈ 1.26 µM)

C[C@H]1COc2c(N3CCN(C)CC3)c(F)cc3c(=O)c(C(=O)O)cn1c23 [Levofloxacin, levofloxacin]
% by category resistant [1]: 0.0%
% by category susceptible [1]: 100.0%
MIC50 ([1]; Shigella spp., 40 strains): ≤ 0.12 µg/mL
MIC90 ([1]; Shigella spp., 40 strains): ≤ 0.12 µg/mL
% by category resistant [3]: 0.0%
% by category susceptible [3]: 95.0%
MIC50 [3]: ≤ 0.12 µg/mL
MIC90 [3]: 1 µg/mL (≈ 2.77 µM)

CC[C@H]1OC(=O)[C@H](C)[C@@H](O[C@H]2C[C@@](C)(OC)[C@@H](O)[C@H](C)O2)[C@H](C)[C@@H](O[C@@H]2O[C@H](C)C[C@H](N(C)C)[C@H]2O)[C@](C)(OC)C[C@@H](C)C(=O)[C@H](C)[C@@H](O)[C@]1(C)O [CLR, clarithromycin]
MIC50 ([1]; Shigella spp., 40 strains): > 16 µg/mL
MIC90 ([1]; Shigella spp., 40 strains): > 16 µg/mL
Emax, Δ log10 CFU at 24 h compared to the post-phagocytosis inoculum [2]: −0.71 Δ log10 CFU
% by category resistant ([4]; CLSI 2008 criteria): 8.7%
% by category susceptible ([4]; CLSI 2008 criteria): 91.3%
MIC50 ([4]; Helicobacter pylori): 0.03 µg/mL (≈ 0.0401 µM)
MIC90 ([4]; Helicobacter pylori): 0.12 µg/mL (≈ 0.16 µM)
MIC50 [4, 10]: ≤ 0.015 µg/mL
MIC Range (Etest) ([5]; C. jejuni, 20 strains): 1 to 8 µg/mL
MIC Range (Etest) ([5]; C. jejuni, 20 strains, listed as CLA): 1-8 (CLA) μg/ml
MIC50 [5]: 2 µg/mL (≈ 2.67 µM)
MIC90 [5]: 4 µg/mL (≈ 5.35 µM)
MIC50 [3]: 0.015 µg/mL (≈ 0.0201 µM)
MIC90 [3]: > 16 µg/mL

CC[C@H]1OC(=O)[C@@](C)(F)C(=O)[C@H](C)[C@@H](OC2OC(C)CC(N(C)C)C2O)[C@@](C)(OC)C[C@@H](C)C(=O)[C@H](C)[C@H]2N(CCCCn3cc(-c4cccc(N)c4)nn3)C(=O)O[C@]12C (some centres unmarked) [CEM-101, 11-N-4-(3-aminophenyl)-[1,2,3]triazol-1-yl]-butyl-5-desosaminyl-3-oxo-2-fluoro-erythronolide A,-11,12-cyclic carbamate]
MIC50 [6]: 0.015 µg/mL (≈ 0.0178 µM)
Emax, Δ log10 CFU at 24 h compared to the post-phagocytosis inoculum [7]: −0.66 Δ log10 CFU
Emax, CFU decrease from original inoculum [7]: −0.66 log10 units
MIC50 [8]: 0.06 µg/mL (≈ 0.071 µM)
No. of strains at MIC 0.06 ([1]; MIC distribution, 40 strains): 0
No. of strains at MIC 0.12 ([1]; MIC distribution, 40 strains): 0
No. of strains at MIC 0.25 ([1]; MIC distribution, 40 strains): 0
No. of strains at MIC 0.5 ([1]; MIC distribution, 40 strains): 0
No. of strains at MIC 1 ([1]; MIC distribution, 40 strains): 2
No. of strains at MIC 2 ([1]; MIC distribution, 40 strains): 0
No. of strains at MIC 4 ([1]; MIC distribution, 40 strains): 14
No. of strains at MIC 8 ([1]; MIC distribution, 40 strains): 18
No. of strains at MIC ≦0.03 ([1]; MIC distribution, 40 strains): 0
No. of strains at MIC ≧16 ([1]; MIC distribution, 40 strains): 6
MIC 50% ([1]; Shigella spp., 40 strains): 8 µg/mL (≈ 9.47 µM)
MIC 90% ([1]; Shigella spp., 40 strains): 16 µg/mL (≈ 18.9 µM)
Emax, CFU decrease from original inoculum [2]: −1.03 log10 units
Emax, Δ log10 CFU at 24 h compared to the post-phagocytosis inoculum [2]: −1.03 Δ log10 CFU
MIC 50% [5, 11]: 1 µg/mL (≈ 1.18 µM)
MIC 90% [5, 11]: 4 µg/mL (≈ 4.73 µM)
No. of strains at MIC 0.06 ([5]; MIC distribution, 20 strains): 0
No. of strains at MIC 0.12 ([5]; MIC distribution, 20 strains): 0
No. of strains at MIC 0.25 ([5]; MIC distribution, 20 strains): 0
No. of strains at MIC 0.5 ([5]; MIC distribution, 20 strains): 0
No. of strains at MIC 1 ([5]; MIC distribution, 20 strains): 10
No. of strains at MIC 2 ([5]; MIC distribution, 20 strains): 0
No. of strains at MIC 4 ([5]; MIC distribution, 20 strains): 8
No. of strains at MIC 8 ([5]; MIC distribution, 20 strains): 2
No. of strains at MIC ≦0.03 ([5]; MIC distribution, 20 strains): 0
No. of strains at MIC ≧16 ([5]; MIC distribution, 20 strains): 0
No. of strains at MIC 0.06 ([3]; MIC distribution, 20 strains): 0
No. of strains at MIC 0.12 ([3]; MIC distribution, 20 strains): 0
No. of strains at MIC 0.25 ([3]; MIC distribution, 20 strains): 0
No. of strains at MIC 0.5 ([3]; MIC distribution, 20 strains): 0
No. of strains at MIC 1 ([3]; MIC distribution, 20 strains): 3
No. of strains at MIC 2 ([3]; MIC distribution, 20 strains): 4
No. of strains at MIC 4 ([3]; MIC distribution, 20 strains): 4
No. of strains at MIC 8 ([3]; MIC distribution, 20 strains): 4
No. of strains at MIC ≦0.03 ([3]; MIC distribution, 20 strains): 0
No. of strains at MIC ≧16 ([3]; MIC distribution, 20 strains): 5
MIC 50% ([3]; 20 strains): 4 µg/mL (≈ 4.73 µM)
MIC 90% ([3]; 20 strains): >16 µg/mL
MIC ([9]; conventional susceptibility testing): 0.004 µg/mL (≈ 0.00473 µM)
MIC ([9]; pH-adjusted broth, pH 6.5): 0.01 µg/mL (≈ 0.0118 µM)
MIC ([9]; pH-adjusted broth, pH 7.4): 0.005 µg/mL (≈ 0.00592 µM)

Quinupristin-dalfopristin
MIC 50% ([1]; Shigella spp., 40 strains): >4 µg/mL
MIC 90% ([1]; Shigella spp., 40 strains): >4 µg/mL
MIC Range ([1]; Shigella spp., 40 strains): >4 µg/mL
MIC 50% ([3]; 20 strains): >4 µg/mL
MIC 90% ([3]; 20 strains): >4 µg/mL

CC1(C)S[C@@H]2[C@H](NC(=O)[C@H](N)c3ccccc3)C(=O)N2[C@H]1C(=O)O [Ampicillin]
MIC50 [4, 10]: ≤ 0.015 µg/mL

CC[C@H]1OC(=O)[C@H](C)[C@@H](O[C@H]2C[C@@](C)(OC)[C@@H](O)[C@H](C)O2)[C@H](C)[C@@H](O[C@@H]2O[C@H](C)C[C@H](N(C)C)[C@H]2O)[C@](C)(O)C[C@@H](C)CN(C)[C@H](C)[C@@H](O)[C@]1(C)O [AZI, azithromycin]
Emax, Δ log10 CFU at 24 h compared to the post-phagocytosis inoculum [7]: −0.81 Δ log10 CFU
Emax, CFU decrease from original inoculum [7]: −0.81 log10 units
MIC50 ([1]; Shigella spp., 40 strains): 4 µg/mL (≈ 5.34 µM)
MIC90 ([1]; Shigella spp., 40 strains): 8 µg/mL (≈ 10.7 µM)
Emax, CFU decrease from original inoculum [2]: −0.83 log10 units
Emax, Δ log10 CFU at 24 h compared to the post-phagocytosis inoculum [2]: −0.83 Δ log10 CFU
MIC50 [3]: 4 µg/mL (≈ 5.34 µM)
MIC90 [3]: 8 µg/mL (≈ 10.7 µM)
MIC Range ([3]; 20 strains): 2 to 8 µg/mL
MIC Range ([3]; 20 strains, listed as AZ): 2-8 (AZ) μg/ml

CN(C)[C@@H]1C(O)=C(C(N)=O)C(=O)[C@@]2(O)C(O)=C3C(=O)c4c(O)cccc4[C@@](C)(O)[C@H]3C[C@@H]12 [Tetracycline]
MIC50 [4, 10]: 0.06 µg/mL (≈ 0.135 µM)
MIC Range (Etest) ([5]; C. jejuni, 20 strains): 0.06 to 256 µg/mL
MIC50 [5]: 64 µg/mL (≈ 144 µM)
MIC90 [5]: > 256 µg/mL

Amoxicillin-clavulanate
% by category resistant [1]: 0.0%
% by category susceptible [1]: 72.5%
MIC 50% ([1]; Shigella spp., 40 strains): 8 µg/mL
MIC 90% ([1]; Shigella spp., 40 strains): >8 µg/mL
% by category resistant [3]: 0.0%
% by category susceptible [3]: 95.0%
MIC 50% ([3]; 20 strains): 2 µg/mL
MIC 90% ([3]; 20 strains): 8 µg/mL

Trimethoprim-sulfamethoxazole [Trim-sulfa]
% by category resistant [1]: 62.5%
% by category susceptible [1]: 37.5%
MIC 50% ([1]; Shigella spp., 40 strains): >4 µg/mL
MIC 90% ([1]; Shigella spp., 40 strains): >4 µg/mL
% by category resistant [3]: 0.0%
% by category susceptible [3]: 100.00%
MIC 50% ([3]; 20 strains): ≦0.25 μg/ml
MIC 90% ([3]; 20 strains): ≦0.25 μg/ml
MIC Range ([3]; 20 strains): ≦0.25 μg/ml

CC[C@H]1OC(=O)[C@H](C)[C@@H](O[C@H]2C[C@@](C)(OC)[C@@H](O)[C@H](C)O2)[C@H](C)[C@@H](O[C@@H]2O[C@H](C)C[C@H](N(C)C)[C@H]2O)[C@](C)(O)C[C@@H](C)C(=O)[C@H](C)[C@@H](O)[C@]1(C)O [Erythromycin]
MIC50 ([1]; Shigella spp., 40 strains): > 4 µg/mL
MIC90 ([1]; Shigella spp., 40 strains): > 4 µg/mL
MIC Range (Etest) ([5]; C. jejuni, 20 strains): 0.5 to 4 µg/mL
MIC50 [5]: 2 µg/mL (≈ 2.73 µM)
MIC90 [5]: 4 µg/mL (≈ 5.45 µM)
MIC50 [3]: > 4 µg/mL
MIC90 [3]: > 4 µg/mL

Cc1ncc([N+](=O)[O-])n1CCO [Metronidazole]
MIC Range (Etest) ([4]; H. pylori, eight strains, Etest): 0.06 to 64 µg/mL
MIC50 [4, 10]: 0.5 µg/mL (≈ 2.92 µM)
